Eight compounds from US8937058B2, “17-hydroxy-19-nor-21-carboxylic acid-steroid γ-lactone derivative, use thereof, and medicament containing the derivative” (priority 2007, dated 2015) can be followed below.

Each structure is given as a SMILES string. Like-named read-outs stand apart in the source and are kept apart here.

Experiment [1] deals with T1, mineralocorticoid receptor (Homo sapiens (Human), UniProt P08235). The experiment is described as follows: Antimineralocorticoid action by transactivation test (MDCK luciferase reporter cells). Type of experiment: cell-based. Particulars: in-vitro transactivation, 1 nM aldosterone; for IC50: read-out: Mineralocorticoid receptor Antagonism IC50. The protocol:
5. Determination of Antimineralocorticoid Action by Means of Transactivation Tests:
The antimineralocorticoid activity of the test substances was determined as for the transactivation tests described above.
The following modifications were undertaken: In this case reporter cell lines were used (MDCK cells) that express the human mineralocorticoid receptor, and transiently contain a reporter construct that contains luciferase under the control of a steroid hormone-responsive promoter.
For determination of antimineralocorticoid efficacy, 1 nM aldosterone (SIGMA A-6628, Lot 22H4033) was added to the cells, to achieve almost maximum stimulation of the reporter gene. Inhibition of the effect indicated a mineralocorticoid-antagonistic action of the substances (Table 2; for comparison, corresponding values for drospirenone (A)).
A general note: A reporter such as luciferase makes a cellular process visible.

A further experiment has as its target progesterone receptor (Homo sapiens (Human), UniProt P06401). Particulars: for Progesterone receptor (PR) Competition factor: CF of 1 = affinity of progesterone, CF >1 lower affinity; for CF PR/CF MR: ratio of the competition factors CF(PR) and CF(MR); for IC50: read-out: Progesterone receptor (PR) IC50, receptor binding, 3H-progesterone displacement.
The target of experiment [2] is T1, mineralocorticoid receptor. Nature of the experiment: Mineralocorticoid receptor binding test (displacement of 3H-aldosterone, cytosol from Hi5 insect cells). Particulars: reference substance 3H-aldosterone. The protocol:
2. Mineralocorticoid Receptor Binding Test:
The test was carried out as in 1., with the following modifications: cytosol from mineralocorticoid receptor-expressing insect cells (Hi5) was used, and the reference substance was ^3H-aldosterone.
In general terms: Loss of bound radioactivity is the signal in a displacement assay; it reports binding, not function.

Experiment [3] has as its target fusion protein from the PR-ligand-binding domain and a Gal4-transactivation domain (Homo sapiens (Human), UniProt P06401). Nature of the experiment: cell-based. To be noted: for Progesterone receptor Agonism EC50 / Progesterone receptor Agonism efficacy: in-vitro transactivation, CHO K1 reporter cells; for Progesterone receptor Agonism EC50: 16 hours. The protocol:
4. Determination of Progestational Action by Means of Transactivation Tests:
The test compounds were added eight hours later, and the cells were incubated with the compounds for 16 hours. The tests were carried out in triplicate. At the end of incubation the medium containing the effector was removed and replaced with lysis buffer. After luciferase assay substrate (Promega, #E1501) had been added, the 96-well plates were then put in a microplate luminometer (Pherastar, BMG Labtech), and the luminescence was measured. The IC50 values were evaluated using software for calculating dose-effect relations.

The target of experiment [4] is T2, androgen receptor (Homo sapiens (Human), UniProt P10275). To be noted: for IC50: read-out: Androgen receptor IC50, receptor binding, 3H-testosterone displacement; for Androgen receptor Competition factor: reference substance 3H-testosterone. How it is done: 3. Androgen Receptor Binding Test:
The test was carried out as in 1., with the following modifications: cytosol from androgen receptor-expressing insect cells (Hi5) was used, and the reference substance was ^3H-testosterone.

The target in experiment [5] is T2, androgen receptor. The experiment is described as follows: cell-based. To be noted: for Androgen receptor Agonism efficacy / Androgen receptor Antagonism efficacy: in-vitro transactivation, PC3 cells; for Androgen receptor Antagonism efficacy: 0.05 nM R1881. The protocol:
6. Determination of Androgenic/Antiandrogenic Action by Means of Transactivation Tests:
The androgenic/antiandrogenic action of the test substances was determined as for the transactivation tests described above.
The following modifications were made: In this case reporter cell lines were used (PC3 cells) that express the androgen receptor, and a reporter construct that contains luciferase under the control of a steroid hormone-responsive promoter.
For determination of the antiandrogenic efficacy, 0.05 nM R1881 was added to the cells, in order to achieve almost maximum stimulation of the reporter gene.

T2 sequence (P10275 whole entry, species assumed): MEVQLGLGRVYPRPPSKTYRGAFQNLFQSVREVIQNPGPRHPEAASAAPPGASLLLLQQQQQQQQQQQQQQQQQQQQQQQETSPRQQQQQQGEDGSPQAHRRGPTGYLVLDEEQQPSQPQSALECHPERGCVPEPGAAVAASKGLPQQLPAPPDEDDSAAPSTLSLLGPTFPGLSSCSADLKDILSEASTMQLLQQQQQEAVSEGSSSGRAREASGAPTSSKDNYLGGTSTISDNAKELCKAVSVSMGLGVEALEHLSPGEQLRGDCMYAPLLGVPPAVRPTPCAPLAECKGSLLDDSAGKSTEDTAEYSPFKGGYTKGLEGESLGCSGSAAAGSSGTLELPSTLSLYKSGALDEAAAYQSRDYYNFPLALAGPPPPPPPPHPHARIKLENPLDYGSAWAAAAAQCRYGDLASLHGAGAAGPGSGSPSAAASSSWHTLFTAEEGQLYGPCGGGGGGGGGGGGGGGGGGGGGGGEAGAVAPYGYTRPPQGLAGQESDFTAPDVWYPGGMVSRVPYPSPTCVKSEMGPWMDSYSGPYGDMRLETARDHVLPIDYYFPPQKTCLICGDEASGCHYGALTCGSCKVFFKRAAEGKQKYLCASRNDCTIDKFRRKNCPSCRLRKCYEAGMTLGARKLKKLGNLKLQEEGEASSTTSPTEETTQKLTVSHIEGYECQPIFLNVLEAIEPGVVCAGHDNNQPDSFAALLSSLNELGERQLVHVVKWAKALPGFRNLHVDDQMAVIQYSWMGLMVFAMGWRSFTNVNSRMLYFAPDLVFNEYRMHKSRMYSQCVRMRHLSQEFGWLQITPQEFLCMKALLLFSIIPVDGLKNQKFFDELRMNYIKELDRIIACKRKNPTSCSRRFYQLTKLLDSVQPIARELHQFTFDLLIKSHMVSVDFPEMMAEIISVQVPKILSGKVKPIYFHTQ
fusion protein from the PR-ligand-binding domain and a Gal4-transactivation domain, sequence (P06401 679-913): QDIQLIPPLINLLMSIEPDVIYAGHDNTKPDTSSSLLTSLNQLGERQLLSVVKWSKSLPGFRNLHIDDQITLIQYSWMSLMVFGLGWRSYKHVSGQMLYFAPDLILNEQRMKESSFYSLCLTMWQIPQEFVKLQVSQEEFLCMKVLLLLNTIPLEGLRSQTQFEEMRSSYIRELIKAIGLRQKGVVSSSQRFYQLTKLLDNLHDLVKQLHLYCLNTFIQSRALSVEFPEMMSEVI
progesterone receptor, sequence (P06401 whole entry, species assumed): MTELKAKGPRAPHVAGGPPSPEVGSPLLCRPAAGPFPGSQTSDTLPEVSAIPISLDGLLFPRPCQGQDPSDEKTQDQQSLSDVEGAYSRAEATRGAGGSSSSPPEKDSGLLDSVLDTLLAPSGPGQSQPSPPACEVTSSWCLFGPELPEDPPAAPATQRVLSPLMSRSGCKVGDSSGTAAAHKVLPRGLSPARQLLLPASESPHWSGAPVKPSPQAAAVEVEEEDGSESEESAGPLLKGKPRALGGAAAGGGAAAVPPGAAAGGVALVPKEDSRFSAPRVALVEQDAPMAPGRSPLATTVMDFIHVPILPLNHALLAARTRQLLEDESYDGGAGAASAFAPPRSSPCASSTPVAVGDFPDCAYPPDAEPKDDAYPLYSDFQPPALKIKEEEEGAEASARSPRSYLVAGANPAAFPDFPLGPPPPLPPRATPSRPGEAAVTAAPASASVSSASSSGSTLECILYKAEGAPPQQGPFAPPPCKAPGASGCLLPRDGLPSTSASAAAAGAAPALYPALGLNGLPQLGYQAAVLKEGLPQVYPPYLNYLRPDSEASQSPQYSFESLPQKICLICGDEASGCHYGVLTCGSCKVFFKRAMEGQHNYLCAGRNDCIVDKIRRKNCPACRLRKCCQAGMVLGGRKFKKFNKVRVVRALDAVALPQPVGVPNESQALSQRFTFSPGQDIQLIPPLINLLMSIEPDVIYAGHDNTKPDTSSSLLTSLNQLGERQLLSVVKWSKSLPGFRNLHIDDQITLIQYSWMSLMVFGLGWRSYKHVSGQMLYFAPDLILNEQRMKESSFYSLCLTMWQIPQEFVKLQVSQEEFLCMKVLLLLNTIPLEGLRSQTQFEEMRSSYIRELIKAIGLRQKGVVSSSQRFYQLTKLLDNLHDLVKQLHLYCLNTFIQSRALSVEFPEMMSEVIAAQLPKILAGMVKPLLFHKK
T1 sequence (P08235 whole entry): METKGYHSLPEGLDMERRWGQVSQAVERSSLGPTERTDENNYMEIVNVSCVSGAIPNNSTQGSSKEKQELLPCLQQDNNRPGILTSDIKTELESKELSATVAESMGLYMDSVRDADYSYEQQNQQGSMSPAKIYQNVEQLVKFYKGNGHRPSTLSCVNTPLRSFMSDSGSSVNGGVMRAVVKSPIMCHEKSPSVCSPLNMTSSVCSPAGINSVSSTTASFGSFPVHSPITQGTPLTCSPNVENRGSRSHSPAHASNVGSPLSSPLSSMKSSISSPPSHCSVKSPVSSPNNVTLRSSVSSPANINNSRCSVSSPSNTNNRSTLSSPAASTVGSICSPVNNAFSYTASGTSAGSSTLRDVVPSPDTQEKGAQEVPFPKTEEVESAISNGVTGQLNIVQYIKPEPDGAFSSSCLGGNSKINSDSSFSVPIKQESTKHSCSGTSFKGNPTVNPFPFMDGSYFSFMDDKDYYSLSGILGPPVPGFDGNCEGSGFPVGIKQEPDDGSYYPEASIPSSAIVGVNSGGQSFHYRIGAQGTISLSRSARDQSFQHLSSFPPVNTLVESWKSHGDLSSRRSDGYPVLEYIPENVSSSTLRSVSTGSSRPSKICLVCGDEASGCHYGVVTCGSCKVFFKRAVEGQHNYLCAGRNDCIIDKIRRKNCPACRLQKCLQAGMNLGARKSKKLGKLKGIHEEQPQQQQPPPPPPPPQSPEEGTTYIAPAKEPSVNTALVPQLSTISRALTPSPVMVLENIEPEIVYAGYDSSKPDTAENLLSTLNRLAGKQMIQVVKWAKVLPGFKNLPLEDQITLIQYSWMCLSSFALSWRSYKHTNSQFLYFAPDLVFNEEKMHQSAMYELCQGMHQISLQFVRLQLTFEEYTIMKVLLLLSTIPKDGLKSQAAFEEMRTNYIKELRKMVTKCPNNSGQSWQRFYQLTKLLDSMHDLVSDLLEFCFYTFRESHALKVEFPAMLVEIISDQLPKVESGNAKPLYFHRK
Procedure for progesterone receptor: Progesterone Receptor Binding Test:
Using cytosol from progesterone receptor-expressing insect cells (Hi5), competitive binding to the progesterone receptor was determined from the ability to displace ^3H-progesterone as reference substance from the receptor.

For `CC[C@]12CC[C@H]3[C@@H](C=CC4=CC(=O)CC[C@@H]43)[C@@H]1CC[C@@]21C=CC(=O)O1` (stereo in doubt) [Example 7, 17β-Hydroxy-18-methyl-19-nor-17α-pregna-4,6,20(Z)-trien-3-one-21-carboxylic acid γ-lactone], in experiment [1], the “Mineralocorticoid receptor Antagonism efficacy” value was found to be 94.2% and the IC50 was determined as 100 nM. Also, on progesterone receptor, the “Progesterone receptor (PR) Competition factor” value was determined as 6.15, the “CF PR/CF MR” value came out at 1.58 and the half-maximal inhibitory concentration (IC50) was 110 nM. In experiment [2], the “Mineralocorticoid receptor (MR) Competition factor” value worked out at 3.9. In experiment [3], the “Progesterone receptor Agonism EC50” value was “inactive”. Also, at androgen receptor [4], the half-inhibitory concentration (IC50) was determined as 2600 nM and the “Androgen receptor Competition factor” value came to 112.0. For the same compound, on androgen receptor [5], the EC50 was found to be 1000 nM, it took 100 nM to reach half-maximal inhibition (IC50), the “Androgen receptor Agonism efficacy” value stood at 5% and the “Androgen receptor Antagonism efficacy” value worked out at 59.23%.

Regarding `C=C[C@@H]1CC2=CC(=O)CC[C@@H]2[C@H]2CC[C@@]3(C)[C@@H](CC[C@@]34C=CC(=O)O4)[C@@H]21` (stereo in doubt) [Example 4A, 17β-Hydroxy-7α-vinyl-19-nor-17α-pregna-4,20(Z)-dien-3-one-21-carboxylic acid γ-lactone], in experiment [1], the “Mineralocorticoid receptor Antagonism efficacy” value is 120.0% and the IC50 is 28 nM. In addition, at progesterone receptor, the “Progesterone receptor (PR) Competition factor” value is reported as 27.47, the “CF PR/CF MR” value amounted to 1.47 and the concentration for half-maximal inhibition (IC50) came out at 760 nM. The “Mineralocorticoid receptor (MR) Competition factor” value in experiment [2] was found to be 18.7. Moreover, in experiment [3], a half-maximal effect (EC50) was put at 140 nM and the “Progesterone receptor Agonism efficacy” value is recorded as 67.5%. On androgen receptor [4], the IC50 was found to be 130 nM and the “Androgen receptor Competition factor” value was found to be 4.7. At androgen receptor [5], the EC50 was found to be 13 nM, the 50% inhibitory concentration (IC50) amounted to 1000 nM, the “Androgen receptor Agonism efficacy” value is recorded as 53.6% and the “Androgen receptor Antagonism efficacy” value is 5%.

For `CC[C@@H]1CC2=CC(=O)CC[C@@H]2[C@H]2CC[C@@]3(CC)[C@@H](CC[C@@]34C=CC(=O)O4)[C@H]12` (stereo in doubt) [Example 9A, 17β-Hydroxy-7α-ethyl-18-methyl-19-nor-17α-pregna-4,20(Z)-dien-3-one-21-carboxylic acid γ-lactone], in experiment [1], the “Mineralocorticoid receptor Antagonism efficacy” value came to 97.6% and the IC50 was found to be 130 nM. Besides, on progesterone receptor, the “Progesterone receptor (PR) Competition factor” value came out at 25.12, the “CF PR/CF MR” value is reported as 15.70 and the IC50 is 670 nM. Further, in experiment [2], the “Mineralocorticoid receptor (MR) Competition factor” value is 1.6. Moreover, the “Progesterone receptor Agonism EC50” value in experiment [3] is “inactive”. Moreover, on androgen receptor [4], the IC50 is 76 nM and the “Androgen receptor Competition factor” value is 2.3. For the same compound, on androgen receptor [5], the EC50 worked out at 5.1 nM, the IC50 worked out at 1000 nM, the “Androgen receptor Agonism efficacy” value is on record as 63.33% and the “Androgen receptor Antagonism efficacy” value stood at 5%.

As to `CC[C@]12CC[C@H]3[C@@H](CCC4=C(Cl)C(=O)CC[C@@H]43)[C@@H]1CC[C@@]21C=CC(=O)O1` [Example 13, 4-Chloro-17β-hydroxy-18-methyl-19-nor-17α-pregna-4,20(Z)-dien-3-one-21-carboxylic acid γ-lactone], the “Mineralocorticoid receptor Antagonism IC50” value in experiment [1] was “inactive”. Besides, at progesterone receptor, the “Progesterone receptor (PR) Competition factor” value is recorded as 28.06, the “CF PR/CF MR” value is on record as 0.60 and the 50% inhibitory concentration (IC50) came out at 750 nM. Also, the “Mineralocorticoid receptor (MR) Competition factor” value in experiment [2] stood at 47.0. Also, in experiment [3], the EC50 was determined as 1000 nM and the “Progesterone receptor Agonism efficacy” value was determined as 25.3%. At androgen receptor [4], the half-maximal inhibitory concentration (IC50) was 170 nM and the “Androgen receptor Competition factor” value stood at 8.3. On androgen receptor [5], the EC50 amounted to 57 nM, half-maximal inhibition (IC50) required 12 nM, the “Androgen receptor Agonism efficacy” value was 33.71% and the “Androgen receptor Antagonism efficacy” value stood at 44.18%.

Regarding `CC[C@]12CC[C@H]3[C@@H]([C@H](C4CC4)CC4=CC(=O)CC[C@@H]43)[C@@H]1CC[C@@]21C=CC(=O)O1` (stereo in doubt) [Example 11A, 17β-Hydroxy-7α-cyclopropyl-18-methyl-19-nor-17α-pregna-4,20(Z)-dien-3-one-21-carboxylic acid γ-lactone], in experiment [1], the “Mineralocorticoid receptor Antagonism efficacy” value was found to be 88.8% and the IC50 is 230 nM. Also, at progesterone receptor, the “Progesterone receptor (PR) Competition factor” value was 21.03, the “CF PR/CF MR” value came to 8.76 and the 50% inhibitory concentration (IC50) is 500 nM. Further, the “Mineralocorticoid receptor (MR) Competition factor” value in experiment [2] worked out at 2.4. Moreover, in experiment [3], the response was half-maximal at 120 nM (EC50) and the “Progesterone receptor Agonism efficacy” value amounted to 47.7%. Moreover, at androgen receptor [4], the IC50 was determined as 94 nM and the “Androgen receptor Competition factor” value is on record as 3.4. Besides, on androgen receptor [5], the midpoint of the response, the EC50, lay at 10 nM; the half-maximal inhibitory concentration (IC50) was determined as 16 nM; the “Androgen receptor Agonism efficacy” value is given as 41.38%; the “Androgen receptor Antagonism efficacy” value was found to be 34.45%.

As for `C=C[C@@H]1CC2=CC(=O)CC[C@@H]2[C@H]2CC[C@@]3(CC)[C@@H](CC[C@@]34C=CC(=O)O4)[C@@H]21` (stereo in doubt) [Example 10A, 17β-Hydroxy-7α-vinyl-18-methyl-19-nor-17α-pregna-4,20(Z)-dien-3-one-21-carboxylic acid γ-lactone], in experiment [1], the “Mineralocorticoid receptor Antagonism efficacy” value came out at 80.0% and the IC50 came to 940 nM. At progesterone receptor, the “Progesterone receptor (PR) Competition factor” value was 18.90, the “CF PR/CF MR” value was found to be 3.71 and the IC50 is 450 nM. Also, in experiment [2], the “Mineralocorticoid receptor (MR) Competition factor” value is on record as 5.1. For the same compound, in experiment [3], the EC50 amounted to 140 nM and the “Progesterone receptor Agonism efficacy” value turned out to be 52.4%. Further, at androgen receptor [4], the IC50 stood at 50 nM and the “Androgen receptor Competition factor” value worked out at 1.8. Besides, at androgen receptor [5], the EC50 amounted to 1.3 nM; the midpoint of inhibition, the IC50, lay at 1000 nM; the “Androgen receptor Agonism efficacy” value is listed as 74.78%; the “Androgen receptor Antagonism efficacy” value was found to be 5%.

As for `CC[C@]12CC[C@H]3[C@@H]([C@H](C)CC4=CC(=O)CC[C@@H]43)[C@@H]1CC[C@@]21C=CC(=O)O1` (stereo in doubt) [Example 8A, 17β-Hydroxy-7α,18-dimethyl-19-nor-17α-pregna-4,20(Z)-dien-3-one-21-carboxylic acid γ-lactone], in experiment [1], the “Mineralocorticoid receptor Antagonism efficacy” value amounted to 113.8% and the IC50 worked out at 11 nM. Further, at progesterone receptor, the “Progesterone receptor (PR) Competition factor” value came to 5.95, the “CF PR/CF MR” value is given as 5.95 and the IC50 was 160 nM. For the same compound, the “Mineralocorticoid receptor (MR) Competition factor” value in experiment [2] was 1.0. For the same compound, the “Progesterone receptor Agonism EC50” value in experiment [3] is “inactive”. At androgen receptor [4], the IC50 turned out to be 43 nM and the “Androgen receptor Competition factor” value was found to be 1.3. For the same compound, on androgen receptor [5], the EC50 stood at 1.7 nM, the IC50 was 1000 nM, the “Androgen receptor Agonism efficacy” value is on record as 78.75% and the “Androgen receptor Antagonism efficacy” value is reported as 5%.

As to `C[C@]12CC[C@H]3[C@@H]([C@H](C4CC4)CC4=CC(=O)CC[C@@H]43)[C@@H]1CC[C@@]21C=CC(=O)O1` (stereo in doubt) [Example 12A, 17β-Hydroxy-7α-cyclopropyl-19-nor-17α-pregna-4,20(Z)-dien-3-one-21-carboxylic acid γ-lactone], in experiment [1], the “Mineralocorticoid receptor Antagonism efficacy” value is recorded as 116.9% and the IC50 is 110 nM. Also, at progesterone receptor, the “Progesterone receptor (PR) Competition factor” value stood at 109.04, the “CF PR/CF MR” value was 9.01 and the IC50 was 2600 nM. Besides, the “Mineralocorticoid receptor (MR) Competition factor” value in experiment [2] turned out to be 12.1. Also, the “Progesterone receptor Agonism EC50” value in experiment [3] was “inactive”. On androgen receptor [4], the IC50 was determined as 300 nM and the “Androgen receptor Competition factor” value is 9.6. At androgen receptor [5], a half-maximal response (EC50) required 67 nM; the midpoint of inhibition, the IC50, lay at 48 nM; the “Androgen receptor Agonism efficacy” value stood at 21.13%; the “Androgen receptor Antagonism efficacy” value stood at 69.75%.

The term IC50 denotes the midpoint of a concentration-inhibition curve. Usually EC50 stands for the concentration at which the effect is half-maximal.
